Measurements published in patent US20130289083A1, “IDO Inhibitors” (priority 2007, published 2013).
Read-outs that look alike come from different tables or passages of the source.

Columns and labels:
[1] = target: human IDO (Homo sapiens, UniProt P14902); assay: Cell based IDO/kynurenine assay in IDO-293-T-Rex cells; settings: kynurenine production, read-out: hIDO EC50
Method: 293-T-REx™ cells (Invitrogen) constitutively express a tet operator binding repressor protein and are maintained in DMEM, 10% FBS, 1× Penicillin+Streptomycin, 2 mM L-glutamine, 5 μg/mL blasticidin at 37° C. with a 5% CO2 in air atmosphere and typically split prior to confluency. Cells were passed by splitting the culture 1/10—by removing media by aspiration, washing 1× with PBS, incubating with 0.25% trypsin/EDTA until the cells detach, disbursing the cells in fresh growth media, and plating at 1/10 dilutions in fresh growth media. For long term cryopreservation, cells are detached from the plate as described above, collected by centrifugation, resuspended in freeze medium (growth medium, 10% DMSO), stored in 1.8 mL cyropreservation vials (˜2−5×10^6 cells per vial), in liquid nitrogen vapor storage tanks.
IDOl-expressing 293-T-Rex™ cell lines were generated by stable transfection of plasmid pcDNA-tetO-IDO expressing human IDO or murine IDO under the control of the doxycycline-inducible CMV-tet promoter. Transfected cells were selected in DBZ medium (DMEM, 10% FBS, 1× Penicillin+Streptomycin, 2 mM L-glutamine, 5 μg/mL blasticidin and 25 μg/ml Zeocin) at 37° C. with a 5% CO2 in air atmosphere. Individual clones were isolated by limiting dilution cloning from these populations.
[…]. The cells incubated in Neutral medium serve as negative control of the assay. The cells incubated in Induction medium and without inhibitor serve as the positive control of the assay. The incubation is carried out for 16 h at 37° C. in a cell culture incubator. 200 μL of medium are transferred to U-bottom polypropylene 96-well plates containing 25 μL of 30% TCA, incubated 30 minutes at 60° C. and centrifuged at 3400 g for 5 minutes. 150 μL of the clear supernatant is transferred to a polystyrene 96-well plate containing 50 μL of 4% (w/v) of p-dimethylaminobenzaldehyde in acetic acid, incubated for 10 min. Kynurenine concentration is determined by measuring the absorbance at 480 nm.
The conditions of the assay were as described in the examples.

[2] = target: purified human IDO protein (Homo sapiens, UniProt P14902); assay: Enzymatic IDO assay (kynurenine production, absorbance 480 nm); settings: enzymatic activity
Sequence of purified human IDO protein (P14902 whole entry P110S/E119G): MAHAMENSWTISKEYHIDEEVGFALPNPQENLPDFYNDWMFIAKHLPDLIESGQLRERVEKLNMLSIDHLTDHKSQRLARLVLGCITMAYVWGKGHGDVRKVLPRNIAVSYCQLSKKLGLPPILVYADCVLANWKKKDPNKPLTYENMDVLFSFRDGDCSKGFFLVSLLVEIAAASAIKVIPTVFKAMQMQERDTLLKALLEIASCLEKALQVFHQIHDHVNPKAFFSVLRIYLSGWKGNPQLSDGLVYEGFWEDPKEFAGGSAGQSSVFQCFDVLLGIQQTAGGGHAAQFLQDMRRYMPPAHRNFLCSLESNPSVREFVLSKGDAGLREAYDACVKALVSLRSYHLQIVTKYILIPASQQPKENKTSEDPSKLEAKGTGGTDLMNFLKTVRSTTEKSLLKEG

[3] = 293T cell line stably expressing human IDO, values reported in ranges
[4] = hIDO IC50, recombinant human IDO, values reported in ranges

Sequence of human IDO (P14902 whole entry): as the sequence (P14902 whole entry P110S/E119G) above, with S110P, G119E counted along it

SMILES | EC50 [1, 3] | IC50 [2, 4] | EC50 ([1]; Table 15, 293T cells expressing human IDO) | IC50 ([2]; hIDO IC50, Table 15, recombinant human IDO)
O=C1CSC(=S)N1Cc1c[nH]c2ccccc12 [compound 78, 3-((1H-indol-3-yl)methyl)-2-thioxothiazolidin-4-one] | 100 to 1000 µM | 100 to 1000 µM | – | –
O=C1CSC(=S)N1Cc1ccccc1 [compound 79, 3-Benzyl-2-thioxothiazolidin-4-one] | < 20 µM | 20 to 100 µM | – | –
NC(CSC(=S)NCc1ccccc1)C(=O)O (centres unmarked) [compound 138, 2-amino-3-(benzylcarbamothioylthio)-propanoic acid] | 20 to 100 µM | 100 to 1000 µM | – | –
NC(CSC(=S)NCCCc1ccccc1)C(=O)O (centres unmarked) [compound 140, 2-amino-3-(3-phenylpropyl-carbamo-thioylthio)propanoic acid] | 20 to 100 µM | 100 to 1000 µM | – | –
Cc1ccc(SC(=S)Nc2ccccc2)cc1 [compound 142, p-tolyl phenylcarbamodithioate] | 100 to 1000 µM | < 20 µM | – | –
O=C1NC(=S)S/C1=C\c1ccc2c(c1)OCO2 [compound 148, (Z)-5-(benzo[d][1,3]dioxol-5-ylmethylene)-2-thioxothiazolidin-4-one] | 100 to 1000 µM | 100 to 1000 µM | – | –
CC(=O)N1C(=O)/C(=C2/SC(=S)NC2=O)c2ccccc21 [compound 149] | 20 to 100 µM | 100 to 1000 µM | – | –
CN(C)c1ccc(/C=C2\CSC(=S)NC2=O)cc1 [compound 150, (Z)-5-(4-(dimethylamino)benzylidene)-2-thioxo-1,3-thiazinan-4-one] | 100 to 1000 µM | 100 to 1000 µM | – | –
O=C1C(CSC(=S)Nc2ccccc2)NC(=S)N1c1ccccc1 (centres unmarked) [compound 151, (5-oxo-1-phenyl-2-thioxoimidazolidin-4-yl)methyl phenylcarbamodithioate] | 100 to 1000 µM | 100 to 1000 µM | – | –
S=C1NC(c2ccccc2)NC(c2ccccc2)S1 (centres unmarked) [compound 152, 4,6-diphenyl-1,3,5-thiadiazinane-2-thione] | 20 to 100 µM | 20 to 100 µM | – | –
O=C1C=Cc2ccccc2C1=O [compound 167, naphthalene-1,2-dione] | 20 to 100 µM | < 20 µM | – | –
Oc1cccc2ccccc12 [compound 168, naphthalen-1-ol] | 100 to 1000 µM | 100 to 1000 µM | – | –
Oc1cc(O)nc(SCc2ccccc2)n1 [compound 222, 2-(benzylthio)pyrimidine-4,6-diol] | 20 to 100 µM | 100 to 1000 µM | – | –
C=CCOc1ccc(CC)c(OCC=C)c1 [compound 252, 2,4-bis(allyloxy)-1-ethylbenzene] | 20 to 100 µM | 100 to 1000 µM | – | –
Cc1ccc(C)c(C(C)CC(=O)O)c1 (centres unmarked) [compound 261, 3-(2,5-dimethylphenyl)butanoic acid] | 20 to 100 µM | 100 to 1000 µM | – | –
CC(CC(=O)O)c1cccc([N+](=O)[O-])c1 (centres unmarked) [compound 282, 3-(3-nitrophenyl)butanoic acid] | 1000 to 10000 µM | 100 to 1000 µM | – | –
CC(=O)C1C2CCC(C2)C1(C)C (centres unmarked) [compound 289, 1-(3,3-dimethylbicyclo[2.2.1]heptan-2-yl)ethanone] | 1000 to 10000 µM | 100 to 1000 µM | – | –
O=C(O)Cc1cccc2sccc12 [compound 307, 2-(benzo[b]thiophen-4-yl)acetic acid] | 1000 to 10000 µM | < 20 µM | – | –
Nc1cc(S(=O)O)c2cccnc2c1O [compound 309, 7-amino-8-hydroxyquinoline-5-sulfinic acid] | 100 to 1000 µM | 20 to 100 µM | – | –
NC(=O)C(=O)NNc1ccccc1 [compound 312, 2-oxo-2-(2-phenylhydrazinyl)acetamide] | < 20 µM | < 20 µM | – | –

SMILES | EC50 [1, 3] | IC50 [2, 4] | EC50 ([1]; Table 15, 293T cells expressing human IDO) | IC50 ([2]; hIDO IC50, Table 15, recombinant human IDO)
O=C(O)CC(=O)c1ccc(F)cc1 [compound 313, 3-(4-fluorophenyl)-3-oxopropanoic acid] | 100 to 1000 µM | 100 to 1000 µM | – | –
O=C1C=C(O)C(=O)c2nc(O)ccc21 [compound 320, 2,7-dihydroxyquinoline-5,8-dione] | 1000 to 10000 µM | < 20 µM | – | –
Nc1ccc2[nH]cc(CCC(=O)O)c2c1 [compound 325, 3-(5-amino-1H-indol-3-yl)propanoic acid] | 1000 to 10000 µM | 100 to 1000 µM | – | –
Nc1ccc2[nH]cc(C(=O)O)c2c1 [compound 352, 5-amino-1H-indole-3-carboxylic acid] | 1000 to 10000 µM | 100 to 1000 µM | – | –
CC1=C(CN2C(=O)c3ccccc3C2=O)C(=O)c2ccccc2C1=O [compound 464, 2-((3-methyl-1,4-dioxo-1,4-dihydronaphthalen-2-yl)methyl)isoindoline-3-dione] | 1000 to 10000 µM | 20 to 100 µM | – | –
O=C1C(O)=C(CC2=C(O)C(=O)c3ccccc3C2=O)C(=O)c2ccccc21 [compound 477] | 20 to 100 µM | < 20 µM | – | –
Cc1c(O)c(=O)ccn1CCc1c[nH]c2ccccc12 [compound 552, 1-(2-(1H-indol-3-yl)ethyl)-3-hydroxy-2-methylpyridin-4(1H)-one] | 20 to 100 µM | 100 to 1000 µM | – | –
O=C(Cc1csc(=S)[nH]1)NCc1c[nH]c2ccccc12 [compound 561, N-((1H-indol-3-yl)methyl)-2-(2-thioxo-2,3-dihydrothiazol-4-yl)acetamide] | 20 to 100 µM | 100 to 1000 µM | – | –
Nc1ccccc1NC(=O)CCCc1c[nH]c2ccccc12 [compound 588, N-(2-aminophenyl)-4-(1H-indol-3-yl)butanamide] | 100 to 1000 µM | 100 to 1000 µM | – | –
Oc1ccccc1C(=S)NCc1ccc2ccccc2c1 [compound 607, 2-hydroxy-N-(naphthalen-2-ylmethyl)benzothioamide] | 20 to 100 µM | 20 to 100 µM | – | –
Oc1ccccc1C(=S)NCCc1ccccc1 [compound 634, 2-Hydroxy-N-phenethylbenzothioamide] | 100 to 1000 µM | 100 to 1000 µM | – | –
Oc1ccccc1C(=S)NCCc1c[nH]c2ccccc12 [compound 644, N-(2-(1H-indol-3-yl)ethyl)-2-hydroxybenzothioamide] | 20 to 100 µM | 100 to 1000 µM | – | –
Oc1ccccc1C(=S)NCc1ccccc1 [compound 656, N-Benzyl-2-hydroxybenzothioamide] | 20 to 100 µM | 100 to 1000 µM | – | –
Oc1ccccc1C(=S)NCCc1csc2ccccc12 [compound 672, N-(2-(benzo[b]thiophen-3-yl)ethyl)-2-hydroxybenzothioamide] | 20 to 100 µM | 100 to 1000 µM | – | –
Cn1[nH]c(=O)c(=O)nc1SCc1ccc2ccccc2c1 [compound 682, 2-Methyl-3-(naphthalen-2-ylmethylthio)-1,2-dihydro-1,2,4-triazine-5,6-dione] | 100 to 1000 µM | 100 to 1000 µM | – | –
O=C(Cc1csc(=S)[nH]1)NCc1ccc2ccccc2c1 [compound 701, N-(Naphthalen-2-ylmethyl)-2-(2-thioxo-2,3-dihydrothiazol-4-yl)acetamide] | 100 to 1000 µM | 100 to 1000 µM | – | –
Nc1ccccc1NC(=O)CCc1csc2ccccc12 [compound 739, N-(2-aminophenyl)-3-(benzo[b]thiophen-3-yl)propanamide] | 100 to 1000 µM | 100 to 1000 µM | – | –
O=C(Cc1ccc2ccccc2c1)NO [compound 827, N-hydroxy-2-(naphthalen-2-yl)acetamide] | 20 to 100 µM | 100 to 1000 µM | – | –
O=C1CSC(=S)N1Cc1ccc2ccccc2c1 [compound 830, 3-(Naphthalen-2-ylmethyl)-2-thioxothiazolidin-4-one] | 20 to 100 µM | 20 to 100 µM | – | –
NCC(ON)c1ccccc1 (centres unmarked) [compound 1875, 2-(aminooxy)-2-phenylethanamine] | – | – | > 1000 µM | 10 to 100 µM
